# Data reported in the OligoGym collection.
# After the bases stand the sugars from the 5' end (letter, count) and the backbone: PS all phosphorothioate, else s phosphorothioate and o phosphodiester by linkage. Methylation of C is not given here. e = 2'-O-(2-methoxyethyl) (MOE); k = constrained ethyl (cEt); d = 2'-deoxy (DNA); m = 2'-O-methyl
# Molecular target: HSD17B13
# Details: ASO, HepaRG
Sequence,target mRNA inhibition (1 µM),further results
"TTCCCAACGCAACAGT (sugars k3 d10 k3, PS)",60%,–
"TTCCTCCACACCGCGC (sugars k3 d10 k3, PS)",47%,–
"TTCGAAACTATTCATA (sugars k3 d10 k3, PS)",44%,–
"TTCGGCACTCAGCTGC (sugars k3 d10 k3, PS)",41%,–
"TTCTACAGAAGACTAC (sugars k3 d10 k3, PS)",40%,–
"TTCTATGCAAGCCTTC (sugars k3 d10 k3, PS)",51%,–
"TTCTCAAGGAGTACTT (sugars k3 d10 k3, PS)",76%,–
"TTCTCTCCATCATCGA (sugars k3 d10 k3, PS)",35%,–
"TTCTGTAGGACTCTGC (sugars k3 d10 k3, PS)",72%,–
"TTCTGTGGCATGGCTA (sugars k3 d10 k3, PS)",78%,target mRNA inhibition (0.02 µM): 0%; target mRNA inhibition (0.078 µM): 0%; target mRNA inhibition (0.313 µM): 34%; target mRNA inhibition (1.25 µM): 67%; target mRNA inhibition (5 µM): 91%
"TTCTTATGTAATAGCC (sugars k3 d9 k3 e1, PS)",73%,target mRNA inhibition (0.02 µM): 17%; target mRNA inhibition (0.078 µM): 25%; target mRNA inhibition (0.313 µM): 57%; target mRNA inhibition (1.25 µM): 76%; target mRNA inhibition (5 µM): 85%
"TTGAATAGCAAGCCAA (sugars k3 d1 m1 d8 k3, PS)",30%,–
"TTGAATTCACTATCTC (sugars k3 d10 k3, PS)",45%,–
"TTGATATTCTGTGGCA (sugars k3 d10 k3, PS)",87%,target mRNA inhibition (0.02 µM): 0%; target mRNA inhibition (0.078 µM): 17%; target mRNA inhibition (0.313 µM): 58%; target mRNA inhibition (1.25 µM): 80%; target mRNA inhibition (5 µM): 94%
"TTGATCTCTTAGCTGT (sugars k3 d9 k3 e1, PS)",64%,–
"TTGATCTCTTAGCTGT (sugars kkdddddddddkekek, PS)",38%,–
"TTGATTCGAAACTATT (sugars k3 d10 k3, PS)",55%,–
"TTGAUATTCTGTGGCA (sugars k3 d1 m1 d8 k3, PS)",60%,–
"TTGCAAGTTTATCAGT (sugars k3 d10 k3, PS)",66%,–
"TTGCAATAGTACTATA (sugars k3 d10 k3, PS)",3%,–
"TTGCACCGTTTTGGGC (sugars k3 d9 k3 e1, PS)",50%,–
"TTGCAGAAATTCACCT (sugars k3 d10 k3, PS)",36%,–

Sequence,target mRNA inhibition (1 µM),further results
"TTGCAGCATTGATTCG (sugars k3 d10 k3, PS)",59%,–
"TTGCAGTTATTAGAAG (sugars k3 d9 k3 e1, PS)",10%,–
"TTGGAATGCTACTTGA (sugars kkdddddddddkekek, PS)",54%,–
"TTGGTAAGTATTCCAT (sugars k3 d9 k3 e1, PS)",28%,–
"TTGGTTGGAGGCTGTA (sugars k3 d10 k3, PS)",60%,–
"TTGTATGAGGTCTCTC (sugars k3 d10 k3, PS)",50%,–
"TTGTCTAAACATCTCT (sugars k3 d10 k3, PS)",60%,–
"TTGTGTAGTCCTAGGG (sugars k3 d10 k3, PS)",64%,–
"TTGTTAAGCAGATGGC (sugars k3 d10 k3, PS)",84%,target mRNA inhibition (0.02 µM): 1%; target mRNA inhibition (0.078 µM): 1%; target mRNA inhibition (0.313 µM): 30%; target mRNA inhibition (1.25 µM): 79%; target mRNA inhibition (5 µM): 85%
"TTTAAAATAGAGTCGG (sugars kkdddddddddkekek, PS)",43%,–
"TTTAACTTTCCTCCGT (sugars k3 d10 k3, PS)",16%,–
"TTTAATACGACTTCCT (sugars k3 d10 k3, PS)",72%,target mRNA inhibition (0.02 µM): 0%; target mRNA inhibition (0.078 µM): 0%; target mRNA inhibition (0.313 µM): 27%; target mRNA inhibition (1.25 µM): 68%; target mRNA inhibition (5 µM): 83%
"TTTACTCACTTCTGGT (sugars k3 d10 k3, PS)",30%,–
"TTTACTGGGATACTAT (sugars k3 d10 k3, PS)",25%,–
"TTTAGAGAGCGATAGA (sugars k3 d10 k3, PS)",13%,–
"TTTAGCAGCTTGGAAG (sugars k3 d10 k3, PS)",43%,–
"TTTAGGATTAATTCCC (sugars k3 d10 k3, PS)",16%,–
"TTTAGGGCAAACCTTG (sugars k3 d10 k3, PS)",67%,–
"TTTCATAGGGAGACCA (sugars k3 d10 k3, PS)",71%,–
"TTTCTTATGTAATAGC (sugars k3 d9 k3 e1, PS)",60%,–
"TTTCTTATGTAATAGC (sugars kkdddddddddkekek, PS)",60%,–
"TTTCUTATGTAATAGC (sugars k3 d1 m1 d8 k3, PS)",50%,–
